# Results taken from PubChem BioAssay AID252 (DTP/NCI, 2004).
# Values joined by “and” are separate entries in the source; they are usually repeats but may differ in a detail not shown here. Equal values may be shown once. Inconclusive results and toxic doses are left out.
# Test system: BDF1 mice, intracerebral L1210 leukemia, survival T/C
# Assay: NCI In Vivo Anticancer Drug Screen. Data for tumor model L1210 Leukemia (intracerebral) in B6D2F1 (BDF1) mice
# Conditions: higher = longer survival
# Summary of the method: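 Tumour was transplanted, animals received compound or vehicle, then survival in each group was measured and treated divided by control.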
structure (smiles),measurement,setting,value
Cc1ccc(S(=O)(=O)NC(=O)N(CCCl)N=O)cc1,T/C,"endpoint: mean survival time, dose: 31.0 mg/kg/injection, schedule: Q01DX001 (ip), vehicle: other",119 % of control
same,T/C,"endpoint: mean survival time, dose: 62.0 mg/kg/injection, schedule: Q01DX001 (ip), vehicle: other",116 % of control
same,T/C,"endpoint: mean survival time, dose: 140.0 mg/kg/injection, schedule: Q01DX001 (ip), vehicle: other",115 % of control
CN(N=O)C(=O)NCCCCNC(=O)N(C)N=O,T/C,"endpoint: mean survival time, dose: 250.0 mg/kg/injection, schedule: Q01DX001 (ip), vehicle: carboxymethylcellulose (CMC)",103 % of control
same,T/C,"endpoint: mean survival time, dose: 300.0 mg/kg/injection, schedule: Q01DX001 (ip), vehicle: carboxymethylcellulose (CMC)",110 % of control
same,T/C,"endpoint: mean survival time, dose: 500.0 mg/kg/injection, schedule: Q01DX001 (ip), vehicle: carboxymethylcellulose (CMC)",102 % of control
same,T/C,"endpoint: mean survival time, dose: 750.0 mg/kg/injection, schedule: Q01DX001 (ip), vehicle: carboxymethylcellulose (CMC)",110 % of control
Nc1nc(=O)n(C2OC(CO)C(O)C2O)cc1F (stereo not drawn),T/C,"endpoint: median survival time, dose: 1.0 mg/kg/injection, schedule: Q01DX009 (ip), vehicle: saline",116 % of control
same,T/C,"endpoint: median survival time, dose: 2.0 mg/kg/injection, schedule: Q01DX009 (ip), vehicle: saline",124 % of control
same,T/C,"endpoint: median survival time, dose: 4.0 mg/kg/injection, schedule: Q01DX009 (ip), vehicle: saline",124 % of control
same,T/C,"endpoint: median survival time, dose: 8.0 mg/kg/injection, schedule: Q01DX009 (ip), vehicle: saline",153 % of control
same,T/C,"endpoint: median survival time, dose: 8.0 mg/kg/injection, schedule: Q01DX009 (ip), vehicle: water",173 % of control
same,T/C,"endpoint: median survival time, dose: 16.0 mg/kg/injection, schedule: Q01DX009 (ip), vehicle: saline",179 % of control
same,T/C,"endpoint: median survival time, dose: 16.0 mg/kg/injection, schedule: Q01DX009 (ip), vehicle: water",212 % of control
same,T/C,"endpoint: median survival time, dose: 32.0 mg/kg/injection, schedule: Q01DX009 (ip), vehicle: saline",201 % of control
same,T/C,"endpoint: median survival time, dose: 32.0 mg/kg/injection, schedule: Q01DX009 (ip), vehicle: water",234 % of control
same,T/C,"endpoint: median survival time, dose: 64.0 mg/kg/injection, schedule: Q01DX009 (ip), vehicle: saline",228 % of control
same,T/C,"endpoint: median survival time, dose: 64.0 mg/kg/injection, schedule: Q01DX009 (ip), vehicle: water",247 % of control
same,T/C,"endpoint: median survival time, dose: 128.0 mg/kg/injection, schedule: Q01DX009 (ip), vehicle: water",89 % of control
same,T/C,"endpoint: median survival time, dose: 512.0 mg/kg/injection, schedule: Q01DX009 (ip), vehicle: saline",98 % of control
CCCCCCCCCCCCCCCC(=O)OCC1OC(n2ccc(N)nc2=O)C(O)C1O (stereo not drawn),T/C,"endpoint: mean survival time, dose: 5.0 mg/kg/injection, schedule: Q01DX005 (ip), vehicle: other",111 % of control (2×) and 117 % of control
same,T/C,"endpoint: mean survival time, dose: 20.0 mg/kg/injection, schedule: Q01DX005 (ip), vehicle: other",154 % of control and 177 % of control and 180 % of control
same,T/C,"endpoint: mean survival time, dose: 25.0 mg/kg/injection, schedule: Q01DX001 (ip), vehicle: other",110 % of control and 112 % of control and 116 % of control
same,T/C,"endpoint: mean survival time, dose: 25.0 mg/kg/injection, schedule: Q01DX005 (ip), vehicle: other",171 % of control and 192 % of control and 202 % of control
same,T/C,"endpoint: mean survival time, dose: 30.0 mg/kg/injection, schedule: Q01DX005 (ip), vehicle: other",169 % of control and 204 % of control and 242 % of control
same,T/C,"endpoint: mean survival time, dose: 35.0 mg/kg/injection, schedule: Q01DX005 (ip), vehicle: other",201 % of control and 211 % of control and 214 % of control
same,T/C,"endpoint: mean survival time, dose: 100.0 mg/kg/injection, schedule: Q01DX001 (ip), vehicle: other",166 % of control
same,T/C,"endpoint: mean survival time, dose: 150.0 mg/kg/injection, schedule: Q01DX001 (ip), vehicle: other",173 % of control and 191 % of control and 213 % of control
same,T/C,"endpoint: mean survival time, dose: 200.0 mg/kg/injection, schedule: Q01DX001 (ip), vehicle: other",170 % of control and 216 % of control and 242 % of control
same,T/C,"endpoint: mean survival time, dose: 250.0 mg/kg/injection, schedule: Q01DX001 (ip), vehicle: other",161 % of control and 195 % of control and 222 % of control
same,T/C,"endpoint: median survival time, dose: 25.0 mg/kg/injection, schedule: Q01DX009 (ip), vehicle: saline with Tween-80",295 % of control
same,T/C,"endpoint: median survival time, dose: 50.0 mg/kg/injection, schedule: Q01DX009 (ip), vehicle: saline with Tween-80",106 % of control
[N-]=[N+]=CC(=O)NCC(=O)NN,T/C,"endpoint: mean survival time, dose: 300.0 mg/kg/injection, schedule: Q01DX Z (ip), vehicle: water",101 % of control
same,T/C,"endpoint: mean survival time, dose: 400.0 mg/kg/injection, schedule: Q01DX Z (ip), vehicle: water",87 % of control
same,T/C,"endpoint: mean survival time, dose: 500.0 mg/kg/injection, schedule: Q01DX Z (ip), vehicle: water",87 % of control
CCOCCN1CCN(CCCN2c3ccccc3Sc3ccc(C(F)(F)F)cc32)CC1,T/C,"endpoint: mean survival time, dose: 0.78 mg/kg/injection, schedule: Q01DX009 (ip), vehicle: water",106 % of control
same,T/C,"endpoint: mean survival time, dose: 1.56 mg/kg/injection, schedule: Q01DX009 (ip), vehicle: water",103 % of control
same,T/C,"endpoint: mean survival time, dose: 25.0 mg/kg/injection, schedule: Q04DX003 (ip), vehicle: water",106 % of control
